The target in one test is T1, Cathepsin D (Cat D) (Homo sapiens, UniProt P07339).
T1 construct: Recombinant Cat D was expressed in CHO cells; made in house; host or cells: CHO cells
The test is described as follows: In vitro enzymatic Cathepsin D (Cat D) FRET assay. The test is classed as biochemical. The note with it: read-out: CatD IC50. An outline of the steps: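 Recombinant Cat D expressed in CHO cells, used at 9 nM and pre-incubated one hour with serially diluted inhibitor in DMSO. Peptide substrate carries a fluorophore and quencher flanking the cleavage site; reaction stopped with Tris buffer raising pH to neutrality, then fluorescence read.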

Test [1] has as its system Aβ40 in conditioned medium of cells stably expressing Amyloid Precursor Protein (APP). The test is described as follows: In vitro BACE cell-based assay (HEK cell assay), Aβ40 sandwich ELISA. The note with it: Homo sapiens, HEK293; Aβ40, 24 h incubation. An outline of the steps:
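APP-stably expressing cells (40K/well, grown 24 h in DMEM/10% FBS) were treated 24 h with compounds in 10-point dose response starting at 100 μM or 10 μM, 0.1% DMSO final. Secreted Aβ40 was measured by sandwich ELISA (pAb40 capture, biotinylated 6E10 detection, europium time-resolved fluorescence); IC50 from percent inhibition.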
A general note: ELISA stands for enzyme-linked immunosorbent assay.

The target in test [2] is Beta Secretase enzyme (BACE1) (Homo sapiens, UniProt P56817). The test is described as follows: In vitro enzymatic BACE FRET assay. The test is classed as biochemical. The note with it: read-out: BACE1 FRET assay IC50. An outline of the steps:
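BACE1 cleavage of a 50 nM fluorophore/quencher peptide FRET substrate ran for one hour in 0.05 M acetate pH 4.2, 10% DMSO, 100 uM genapol. Tris buffer raised pH to neutrality to stop the reaction before fluorescence was read (excitation 488 nm, […]).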

What is called IC50 is the concentration at which inhibition is half-maximal.

Molecules are shown by their SMILES. Some results are limits rather than exact numbers.

T1 sequence (P07339 65-412, species assumed): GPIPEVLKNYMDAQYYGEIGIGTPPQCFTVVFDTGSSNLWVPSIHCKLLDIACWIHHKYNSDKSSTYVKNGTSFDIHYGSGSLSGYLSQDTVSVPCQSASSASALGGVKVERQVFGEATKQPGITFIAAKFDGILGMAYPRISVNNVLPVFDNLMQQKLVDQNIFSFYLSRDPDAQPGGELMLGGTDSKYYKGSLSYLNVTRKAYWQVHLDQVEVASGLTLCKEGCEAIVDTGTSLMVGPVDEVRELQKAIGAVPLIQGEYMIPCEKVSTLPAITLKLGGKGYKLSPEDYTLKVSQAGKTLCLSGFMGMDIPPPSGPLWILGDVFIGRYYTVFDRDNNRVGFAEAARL
Chain of Beta Secretase enzyme (BACE1) (P56817 46-501): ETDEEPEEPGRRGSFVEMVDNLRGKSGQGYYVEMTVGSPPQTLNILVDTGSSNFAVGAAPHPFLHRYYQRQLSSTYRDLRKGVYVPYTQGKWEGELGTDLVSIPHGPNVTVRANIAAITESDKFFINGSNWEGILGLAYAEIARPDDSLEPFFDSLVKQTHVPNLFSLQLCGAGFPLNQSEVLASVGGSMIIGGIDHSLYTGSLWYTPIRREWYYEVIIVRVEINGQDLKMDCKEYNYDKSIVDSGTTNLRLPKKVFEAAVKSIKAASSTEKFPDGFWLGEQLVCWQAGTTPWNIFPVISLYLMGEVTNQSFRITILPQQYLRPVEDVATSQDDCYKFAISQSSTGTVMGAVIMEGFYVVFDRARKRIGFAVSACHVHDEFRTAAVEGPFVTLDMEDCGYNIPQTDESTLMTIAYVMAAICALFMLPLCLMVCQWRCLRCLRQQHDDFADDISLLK

For `CC1(C)C(N)=N[C@](C)(c2cc(Nc3nccc4cc(C#N)cnc34)ccc2F)CS1(=O)=O` [Example 48, 8-((3-((3R)-5-amino-3,6,6-trimethyl-1,1-dioxido-3,6-dihydro-2H-1,4-thiazin-3-yl)-4-fluorophenyl)amino)-1,7-naphthyridine-3-carbonitrile], the IC50 on Cathepsin D (Cat D) came to 66700 nM; in test [1], 1.9 nM; in test [2] it was 0.54 nM.
The like results for `CC1(C)C(N)=N[C@](C)(c2cc(Nc3ncc(F)c4cc(Cl)cnc34)ccc2F)CS1(=O)=O` [Example 49, N-(3-((3R)-5-amino-3,6,6-trimethyl-1,1-dioxido-3,6-dihydro-2H-1,4-thiazin-3-yl)-4-fluorophenyl)-3-chloro-5-fluoro-1,7-naphthyridin-8-amine] were, in that order, 27100 nM, 15.1 nM and 0.56 nM.
On the same counts, the results for `COc1cnc2c(Nc3ccc(F)c([C@]4(C)CS(=O)(=O)C(C)(C)C(N)=N4)c3)ncc(F)c2c1` [Example 50, N-(3-((3R)-5-amino-3,6,6-trimethyl-1,1-dioxido-3,6-dihydro-2H-1,4-thiazin-3-yl)-4-fluorophenyl)-5-fluoro-3-methoxy-1,7-naphthyridin-8-amine] are 73300 nM, 5.3 nM and 2 nM.
`COc1cnc2c(Nc3ccc(F)c([C@]4(C)CS(=O)(=O)C(C)(C)C(N)=N4)c3)ncnc2c1` [Example 51, N-(3-((3R)-5-amino-3,6,6-trimethyl-1,1-dioxido-3,6-dihydro-2H-1,4-thiazin-3-yl)-4-fluorophenyl)-7-methoxypyrido[3,2-d]pyrimidin-4-amine]: the concentration for half-maximal inhibition (IC50) on Cathepsin D (Cat D) came to 81000 nM; in test [1] it was 3 nM; in test [2], 2.7 nM.
The like results for `CC1(C)C(N)=N[C@](C)(c2cc(Nc3ncnc4cc(Cl)cnc34)ccc2F)CS1(=O)=O` [Example 52, N-(3-((3R)-5-amino-3,6,6-trimethyl-1,1-dioxido-3,6-dihydro-2H-1,4-thiazin-3-yl)-4-fluorophenyl)-7-chloropyrido[3,2-d]pyrimidin-4-amine] were, in that order, 36000 nM, 2.3 nM and 2 nM.
For `COc1cc(F)c2c(Nc3ccc(F)c([C@]4(C)CS(=O)(=O)C(C)(C)C(N)=N4)c3)ncnc2c1` [Example 53, N-(3-((3R)-5-amino-3,6,6-trimethyl-1,1-dioxido-3,6-dihydro-2H-1,4-thiazin-3-yl)-4-fluorophenyl)-5-fluoro-7-methoxy-4-quinazolinamine], the values for the IC50 (at Cathepsin D (Cat D); in test [1]; in test [2]) were 320000 nM, 399 nM and 739 nM, respectively.
Turning to `Cc1nc2c(Nc3ccc(F)c([C@]4(C)CS(=O)(=O)C(C)(C)C(N)=N4)c3)nccc2s1` [Example 54, N-(3-((3R)-5-amino-3,6,6-trimethyl-1,1-dioxido-3,6-dihydro-2H-1,4-thiazin-3-yl)-4-fluorophenyl)-2-methyl[1,3]thiazolo[4,5-c]pyridin-4-amine], the half-inhibitory concentration (IC50) is more than 400000 nM at Cathepsin D (Cat D), 137 nM in test [1] and 17.2 nM in test [2].
The like results for `CC1(C)C(N)=N[C@](C)(c2cc(Nc3nccc4nc(C(F)(F)F)cnc34)ccc2F)CS1(=O)=O` [Example 55, N-(3-((3R)-5-amino-3,6,6-trimethyl-1,1-dioxido-3,6-dihydro-2H-1,4-thiazin-3-yl)-4-fluorophenyl)-2-(trifluoromethyl)pyrido[3,4-b]pyrazin-5-amine] were, in that order, more than 133000 nM, 34.6 nM and 5.2 nM.
On to `COc1cnc2c(Nc3ccc(F)c([C@]4(C)CS(=O)(=O)CC(N)=N4)c3)nccc2c1` [Example 56, N-(3-((3R)-5-amino-3-methyl-1,1-dioxido-3,6-dihydro-2H-1,4-thiazin-3-yl)-4-fluorophenyl)-3-methoxy-1,7-naphthyridin-8-amine], for which the IC50 amounted to 69800 nM on Cathepsin D (Cat D), 27.1 nM in test [1] and 62.7 nM in test [2].
Consider `C[C@@]1(c2cc(Nc3nccc4cc(Cl)cnc34)ccc2F)CS(=O)(=O)CC(N)=N1` [Example 57, N-(3-((3R)-5-amino-3-methyl-1,1-dioxido-3,6-dihydro-2H-1,4-thiazin-3-yl)-4-fluorophenyl)-3-chloro-1,7-naphthyridin-8-amine], for which the half-inhibitory concentration (IC50) at Cathepsin D (Cat D) was 134000 nM; in test [1], 19 nM; in test [2], 4.3 nM.
The like results for `Cc1nc2c(Nc3ccc(F)c([C@]4(C)CS(=O)(=O)CC(N)=N4)c3)nccc2s1` [Example 58, N-(3-((3R)-5-amino-3-methyl-1,1-dioxido-3,6-dihydro-2H-1,4-thiazin-3-yl)-4-fluorophenyl)-2-methyl[1,3]thiazolo[4,5-c]pyridin-4-amine] were, in that order, 304000 nM, 292 nM and 190 nM.
On the same counts, the results for `COc1cnc2c(Nc3ccc(F)c([C@]4(C)CS(=O)(=O)[C@@](C)(F)C(N)=N4)c3)nccc2n1` [Example 59, N-(3-((3R,6R)-5-amino-6-fluoro-3,6-dimethyl-1,1-dioxido-3,6-dihydro-2H-1,4-thiazin-3-yl)-4-fluorophenyl)-2-methoxypyrido[3,4-b]pyrazin-5-amine] are 388000 nM, 178 nM and 3.3 nM.
On the same counts, the results for `C[C@]1(F)C(N)=N[C@](C)(c2cc(Nc3nccc4cc(C#N)cnc34)ccc2F)CS1(=O)=O` [Example 60, 8-((3-((3R,6R)-5-amino-6-fluoro-3,6-dimethyl-1,1-dioxido-3,6-dihydro-2H-1,4-thiazin-3-yl)-4-fluorophenyl)amino)-1,7-naphthyridine-3-carbonitrile] are 99900 nM, 80.8 nM and less than 2 nM.
Regarding `COc1cnc2c(Nc3ccc(F)c(C4(CF)CS(=O)(=O)C(C)(C)C(N)=N4)c3)nccc2c1` (stereo not drawn) [Example 61, N-(3-(5-amino-3-(fluoromethyl)-6,6-dimethyl-1,1-dioxido-3,6-dihydro-2H-1,4-thiazin-3-yl)-4-fluorophenyl)-3-methoxy-1,7-naphthyridin-8-amine], the IC50 at Cathepsin D (Cat D) is more than 400000 nM; in test [1] it was 31.7 nM; in test [2], 6.5 nM.
On the same counts, the results for `COc1cnc2c(Nc3ccc(F)c(C4(C(F)F)CS(=O)(=O)C(C)(C)C(N)=N4)c3)nccc2c1` (stereo not drawn) [Example 62, N-(3-(5-amino-3-(difluoromethyl)-6,6-dimethyl-1,1-dioxido-3,6-dihydro-2H-1,4-thiazin-3-yl)-4-fluorophenyl)-3-methoxy-1,7-naphthyridin-8-amine] are more than 400000 nM, 1820 nM and 241 nM.
On the same counts, the results for `COc1cnc2c(Nc3ccc(F)c([C@@]4(C(F)(F)F)CS(=O)(=O)C(C)(C)C(N)=N4)c3)nccc2c1` [Example 64, N-(3-((3R)-5-amino-6,6-dimethyl-1,1-dioxido-3-(trifluoromethyl)-3,6-dihydro-2H-1,4-thiazin-3-yl)-4-fluorophenyl)-3-methoxy-1,7-naphthyridin-8-amine] are more than 400000 nM, more than 10000 nM and 8690 nM.
The like results for `COc1cnc2c(Nc3ccc(F)c([C@]4(C(F)F)CS(=O)(=O)C(C)(C)C(N)=N4)c3)nccc2c1` [Example 67, (S)-5-Amino-3-(difluoromethyl)-3-(2-fluoro-5-((3-methoxy-1,7-naphthyridin-8-yl)amino)phenyl)-6,6-dimethyl-3,6-dihydro-2H-1,4-thiazine 1,1-dioxide] were, in that order, more than 400000 nM, 980 nM and 68 nM.
For `CC1(C)C(N)=N[C@](C)(c2cc(Nc3nccc4cc(Cl)cnc34)cc(F)c2F)CS1(=O)=O` [Example 69, (R)-5-Amino-3-(5-((3-chloro-1,7-naphthyridin-8-yl)amino)-2,3-difluorophenyl)-3,6,6-trimethyl-3,6-dihydro-2H-1,4-thiazine 1,1-dioxide], the concentration for half-maximal inhibition (IC50) at Cathepsin D (Cat D) was 8560 nM; in test [1], 23.1 nM; in test [2] it was 0.4 nM.
Consider `CC1(C)C(N)=N[C@](C)(c2cc(Nc3nccc4nc(O)cnc34)cc(F)c2F)CS1(=O)=O` [Example 71, (R)-5-Amino-3-(2,3-difluoro-5-((2-hydroxypyrido[3,4-b]pyrazin-5-yl)amino)phenyl)-3,6,6-trimethyl-3,6-dihydro-2H-1,4-thiazine 1,1-dioxide], for which the results for the IC50 (on Cathepsin D (Cat D); in test [1]; in test [2]) were 45200 nM, 47.4 nM and 3.7 nM, respectively.
Regarding `CC1(C)C(N)=N[C@@](C)(c2cc(Nc3nccc4nc(O)cnc34)cc(F)c2F)CS1(=O)=O` [Example 72, (S)-5-Amino-3-(2,3-difluoro-5-((2-hydroxypyrido[3,4-b]pyrazin-5-yl)amino)phenyl)-3,6,6-trimethyl-3,6-dihydro-2H-1,4-thiazine 1,1-dioxide], the IC50 on Cathepsin D (Cat D) came out at 175000 nM; in test [1] it was 5350 nM; in test [2], 505 nM.
As to `CC1(C)C(N)=N[C@](C)(c2cc(Nc3csc4cc(C#N)cnc34)ccc2F)CS1(=O)=O` [Example 73, (R)-3-((3-(5-Amino-3,6,6-trimethyl-1,1-dioxido-3,6-dihydro-2H-1,4-thiazin-3-yl)-4-fluorophenyl)amino)thieno[3,2-b]pyridine-6-carbonitrile], the values for the IC50 (at Cathepsin D (Cat D); in test [1]; in test [2]) were 27300 nM, 1.6 nM and 2 nM, respectively.

Values taken from patent US20140107109A1, “AMINO-DIHYDROTHIAZINE AND AMINO-DIOXIDO DIHYDROTHIAZINE COMPOUNDS AS BETA-SECRETASE ANTAGONISTS AND METHODS OF USE” (Amgen Inc., priority 2012, published 2014).
